Consider two molecules from patent US20260176266A1, “PIPERIDINOPYRIMIDINE DERIVATIVE, PREPARATION METHOD THEREFOR AND USE THEREOF IN MEDICINE” (TUOJIE BIOTECH (SHANGHAI) CO., LTD., priority 2022, published 2026).

The nature of data set [1]: Human liver microsome metabolism study. It is filed as in vitro ADME. The procedure:
222.5 μL of human liver microsomes (protein concentration: 1 mg/mL) and 25 μL of NADPH ([…]) were added to an incubation plate and pre-heated for 10 min. 2.5 μL of control compound and test compound (100 μM) were added.
[…] The reaction was stopped by adding 5 volumes of cold acetonitrile containing IS (100 nM alprazolam, 200 nM caffeine, and 100 nM tolbutamide). The reaction mixture was centrifuged, and 100 μL of the supernatant was collected and mixed with 100 μL of ultrapure H2O. Then the mixture was analyzed by LC-MS/MS.
The slope value k was determined by linear regression of the natural logarithm of a curve of the parent drug remaining percentage versus incubation time.
The in-vitro half-life (in-vitro T1/2) was determined by the slope value:
Using the following equation (the average of repeated measurements), the in-vitro T½ (min) was converted to the in-vitro intrinsic clearance rate (in-vitro CLint, in μL/min/mg protein): […]
On the technique in general: Liver microsomes are vesicles of endoplasmic reticulum, rich in cytochrome P450 enzymes.

The next data set has as its system various tumor cell lines. In words: Inhibitory activity against tumor cells, summary over the panel of Tables 4 and 5. Format: cell-based. As to conditions: summary of Tables 4 and 5. The procedure:
(§1) MCF7 (ATCC #HTB-22) and T47D (ATCC #HTB-133) breast cancer cells and PANC-1 (ATCC #CRL-1469) pancreatic cancer cells were purchased from ATCC. MDA-MB-231 (Cobioer #CBP60382), HCC1806 (Cobioer #CBP60373), and MDA-MB-468 (Cobioer #CBP60387) breast cancer cells, HCT-116 (Cobioer #CBP60028) colorectal cancer cells, and OCI-AML-3 (Cobioer #CBP60817) and MV-4-11 (Cobioer #CBP60522) leukemia cells were purchased from Nanjing Cobioer Biosciences Co., Ltd.
(§2) OCI-AML-3 was cultured in RPMI 1640 medium with 20% FBS; HCC1806 and T47D were cultured in RPMI 1640 medium with 10% FBS; MCF7, MDA-MB-231, MDA-MB-468, and PANC-1 were cultured in DMEM medium with 10% FBS; MV-4-11 was cultured in IMDM medium with 20% FBS; HCT-116 was cultured in MC′5A medium with 10% FBS.
(§3) Palbociclib-resistant cells were constructed on MCF7 parent cells, designated MCF7 Palbo-R, and the culture conditions were consistent with those of the parent cells. All tumor cells were cultured in a cell incubator at 37° C. with 5% CO2. The cells were seeded at corresponding cell densities (600 cells/well for MDA-MB-231; 500 cells/well for MDA-MB-468, PANC-1, and HCT-116; 200 cells/well for MCF7 and HCC1806; 800 cells/well for MCF7 Palbo-R; 3000 cells/well for OCI-AML-3 and MV-4-11) in 384-well plates and cultured overnight in the incubator. On the second day, the cells were treated with compounds. The maximum compound concentration was 10 μM and was 3-fold diluted to obtain 9 concentrations, each tested in duplicate, and the final concentration of DMSO was 0.1%. The cells continued to be cultured in the incubator, with MDA-MB-231, PANC-1, MDA-MB-468, OCI-AML-3, and MV-4-11 being treated with drugs for 5 days and HCC1806, MCF7, MCF7 Palbo-R, and HCT116 being treated with drugs for 7 days. Cell viability was tested using the Celltiter Glo assay kit (Promega), and the testing method was consistent with the operational method provided by the kit. Readings were taken using an Envision multimode microplate reader. Data were processed using GraphPad Prism 8, and IC50 was calculated.
Y=Bottom+(Top−Bottom)/(1+10^((Log IC50−X)×HillSlope)). Calculation formula: • X: the logarithm of the compound concentration; Y: % inhibition.

For another data set, the system named is MV-4-11 leukemia cells. In words: Inhibitory activity against tumor cells, CellTiter-Glo: MV-4-11. It is filed as cell-based. Conditions: Homo sapiens, MV4-11, 120 h, MV-4-11, 5 days treatment. Here is the method:
as §1, §2
as §3, with “calculated. […]” for “calculated.”
On the technique in general: ATP-based viability assays read luminescence as a measure of living cells.

In general, half-life refers to the time needed for the level to fall by half in the phase considered. High values mean slow loss, low ones fast loss. What is called microsomal CLint is the rate of metabolic loss divided by the concentration. A high value points to rapid turnover. The IC50 is the concentration at which inhibition is half-maximal. `C[C@@H]1Cc2cnc(NCc3ccn(C)n3)nc2CN1C(=O)N[C@H](CN(C)C)c1ccccc1` [Example 2, (R)—N—((S)-2-(Dimethylamino)-1-phenylethyl)-6-methyl-2-(((1-methyl-TH-pyrazol-3-yl)methyl)amino)-5,8-dihydropyrido[3,4-d]pyrimidine-7(6H)-carboxamide] registered a half-life at 1 μM in data set [1] (human liver microsomes, in-vitro half-life) of more than 3.08 h. Besides, in data set [1] (human liver microsomes, in-vitro intrinsic clearance), the microsomal CLint at 1 μM is less than 7.5 µL/min/mg. Moreover, in data set [1] (human liver microsomes, incubation 0.5 min), the “Remaining amount % at 0.5 min” value is reported as 100.00%. Besides, the “Remaining amount % at 5 min” value in data set [1] (human liver microsomes, incubation 5 min) turned out to be 105.55%. Besides, in data set [1] (human liver microsomes, incubation 15 min), the “Remaining amount % at 15 min” value is 96.07%. The “Remaining amount % at 30 min” value in data set [1] (human liver microsomes, incubation 30 min) was 100.48%. In addition, the “Remaining amount % at 60 min” value in data set [1] (human liver microsomes, incubation 60 min) came out at 81.83%. For the same molecule, in data set [1] (summary of Tables 7 and 8, statement in words), the “metabolic stability in human liver microsomes compared with Janssen-01” value is recorded as “more stable metabolism”. The “inhibitory activity against the various tumor cell lines (in words)” value with various tumor cell lines was “high inhibitory activity”. This molecule had an IC50 with MV-4-11 leukemia cells of 18.2 nM.

As for `C[C@H](Nc1ncc2c(n1)CN(C(=O)N[C@H](CN(C)C)c1ccccc1)[C@H](C)C2)c1ccccn1` [Example 6, (R)—N—((S)-2-(Dimethylamino)-1-phenylethyl)-6-methyl-2-(((S)-1-(pyridin-2-yl)ethyl)amino)-5,8-dihydropyrido[3,4-d]pyrimidine-7(6H)-carboxamide], in the data set on various tumor cell lines, the “inhibitory activity against the various tumor cell lines (in words)” value was “high inhibitory activity”. It took 19.1 nM to reach half-maximal inhibition in the data set on MV-4-11 leukemia cells (IC50).
